Consider 8 compounds from US20260224538A1 (Purdue Research Foundation, priority 2023, published 2026).

Each structure is given as a SMILES string. A value given as a limit tells only on which side of the number the result lay.

What all share (assay type): biochemical
Assay [1] has as its target T1, transthyretin fragment peptide (TTR81-127) (Homo sapiens, UniProt P02766).
T1 construct: TTR fragment 81-127 was obtained from AnaSpec; purchased AnaSpec; host or cells: synthetic peptide
In words: ThT fluorescence assay of TTR81-127 fibril formation. As to conditions: for remaining activity at 100 µM: compounds at 100 μM, TTR81-127 10 μM, control 0.25% DMSO, read-out: ThT TTR81-127 (%), maximum thioflavin T (ThT) intensity in percentage. As to the method:
(§1) Thioflavin-T (ThT) fluorescence assays. Thioflavin-T (ThT) fluorescence assays were used to monitor fibril formation of recombinant Ap (fragments 1-40 and 1-42), recombinant α-syn, recombinant tau isoform 2N4R, synthetic IAPP, and synthetic TTR peptides treated with BTA and its derivatives. The IAPP ThT assay was performed in 10 mM PBS (pH 7.4) at a final concentration of 10 μM for both IAPP and ThT as published previously. Aβ fragments 1-40 and 1-42 were tested at 7 μM in 10 mM of PBS using ThT at a final concentration of 20 μM. Kinetics of α-syn fibrillization were performed as published previously.^36-37 TTR fragment kinetics of fibril formation were assessed at 10 μM in 100 mM sodium acetate buffer supplemented with 100 mM KCl and 1 mM ethylenediaminetetraacetic acid (EDTA) (pH 4) with 20 μM ThT. The fluorescence emission experiments were performed with the excitation and emission wavelengths set at 440 and 485 nm, respectively, with a Synergy HT multi-mode microplate reader (BioTek, Winooski, VT). Samples were measured in three replicates, and the experiments were repeated three times using at least two different stock solutions. For each time point, arbitrary units of fluorescence were calculated from the mean values normalized against the maximum value in each completed assay. The lag time for each condition was calculated as previously described. All results contained in histograms were presented as mean±SEM. Data were analyzed by the one-way analysis of variance with Dunnett's multiple comparisons between controls and compounds. Differences were considered statistically significant at p<0.05.

The next assay addresses T2, TTR101-125 (Homo sapiens, UniProt P02766).
T2 construct: TTR fragments 1-25, 26-50, 51-75, 76-100, 81-105, 101-125, and 101-125 were obtained from GenScript; purchased GenScript; host or cells: synthetic peptide
The experiment in a line: ThT fluorescence assay of TTR101-125 fibril formation. As to the method: as §1

The target of a further assay is T3, α-synuclein (α-syn) (Homo sapiens, UniProt P37840).
T3 construct: purchased rPeptide
In words: Thioflavin-T (ThT) fluorescence assay of α-syn fibril formation. As to conditions: compounds at 100 μM, α-syn 6.25 μM, control 0.25% DMSO; for remaining activity at 100 µM: read-out: ThT a-Syn (%), maximum thioflavin T (ThT) intensity in percentage. As to the method: as §1
(§2) Compounds with the highest anti-fibrillary activity were tested at 3.125, 6.25, 12.5, 25, 50, and 100 μM to obtain dose-response curves with prepared α-syn and 2N4R tau at 6.25 μM and 6 μM, respectively. Compounds were tested with α-syn using a previously published procedure. Concerning the tau (isoform 2N4R) kinetics of fibril formation, measurements of ThT fluorescence were performed with a solution of the protein diluted to a final concentration of 6 μM in PBS (pH 7.4) supplemented with 1.5 μM heparin, 20 μM ThT, 2.5 mM DTT, and 100 μM compound. Aliquots of the diluted protein solution (100 μL each) were pipetted into the wells of a 96-well plate, and a Teflon ball was added to each well. The plate was incubated at 37° C. with constant shaking at 1,000 rpm in a Tecan Spark plate reader. ThT fluorescence was measured every 15 minutes with excitation and emission wavelengths of 440 nm and 480 nm, and the data were plotted using GraphPad Prism.

In the next assay the target is T4, tau isoform 2N4R (Homo sapiens, UniProt P10636).
T4 construct: made in house; host or cells: E. coli BL21(DE3)
The experiment in a line: ThT kinetics of tau isoform 2N4R fibril formation. The settings on record: tau 6 μM, compound 100 μM. As to the method: The bacterial expression plasmid consisting of the vector pRK172 carrying a cDNA encoding the human Tau 2N4R isoform was obtained from Dr. David Eliezer (Weill Cornell Medicine, New York, NJ). For protein expression, E. coli BL21(DE3) cells were transformed with the plasmid and grown in LB media supplemented with ampicillin (100 μg/mL). Protein over-expression was induced by the addition of 1 mM IPTG for 4 hours at 37° C., and cells were pelleted by centrifugation at 6,000 g for 15 minutes at 4° C. The cells were resuspended in lysis buffer (20 mM MES, 400 mM NaCl, 0.2 mM MgCl2, 1 mM EGTA, protease inhibitor cocktail (P8340, Sigma Aldrich), 0.25 mg/mL lysozyme, and 1 μg/mL DNase 1, pH 6.8) and lysed by a French press cell disruptor at 4° C., after which the lysate was boiled for 20 minutes. Denatured proteins were pelleted by centrifugation at 30,000 g for 30 minutes at 4° C., and the supernatant was dialyzed overnight against cation exchange buffer (20 mM MES, 50 mM NaCl, 1 mM MgCl2, 1 mM EGTA, 2 mM DTT, 0.1 mM PMSF, pH 6.8). The dialysate was loaded onto a HiPrep SP HP column, and proteins were eluted with a linear gradient ranging from 50 mM to 1 M NaCl. Fractions containing tau isoform 2N4R were pooled, and the resulting protein solution was dialyzed against PBS (pH 7.4) and stored at −80° C.
as §2

Setting [2] is: compound 100 μM, molar ratio 1:10.

T4 sequence (P10636 1-441 isoform P10636-8): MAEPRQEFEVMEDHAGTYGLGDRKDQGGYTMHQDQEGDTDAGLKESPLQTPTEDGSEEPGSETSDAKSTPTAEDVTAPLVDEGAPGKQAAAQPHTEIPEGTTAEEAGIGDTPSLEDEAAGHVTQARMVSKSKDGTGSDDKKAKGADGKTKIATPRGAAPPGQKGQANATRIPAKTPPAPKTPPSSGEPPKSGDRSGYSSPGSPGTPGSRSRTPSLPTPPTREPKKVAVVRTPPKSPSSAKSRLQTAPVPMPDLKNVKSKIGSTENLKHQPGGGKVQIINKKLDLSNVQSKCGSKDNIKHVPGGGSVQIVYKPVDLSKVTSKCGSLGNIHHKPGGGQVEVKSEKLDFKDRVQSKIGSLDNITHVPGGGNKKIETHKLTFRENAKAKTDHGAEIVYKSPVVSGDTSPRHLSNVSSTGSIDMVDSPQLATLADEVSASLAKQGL

For `CC(=O)c1ccc(NC(=S)Nc2ccc(-c3nc4ccccc4s3)cc2)cc1` [Compound 2, 1-(4-acetylphenyl)-3-[4-(1,3-benzothiazol-2-yl)phenyl]thiourea], the “TTR81-127 fibril formation (ThT)” value in assay [1] (setting [2]) was “to a lesser extent, compound 2 reduced fibril formation”. The “TTR101-125 fibril formation (ThT)” value was “weak in inhibiting TTR101-125 fibril formation” on TTR101-125 (compound 50 μM, molar ratio 1:5) and “to a lesser extent, compound 2 reduced fibril formation” at TTR101-125 (setting [2]).
Turning to `O=[N+]([O-])c1ccc2snc(Nc3nc(Cl)nc(Cl)n3)c2c1` [Compound 6, N-(4,6-dichloro-1,3,5-triazin-2-yl)-5-nitro-1,2-benzothiazol-3-amine], the results for the remaining activity at 100 µM (on α-synuclein (α-syn); in assay [1]) were greater than 100% and 82.6 ± 6%, respectively.
As for `O=[N+]([O-])c1ccc2snc(Nc3ncnc(Cl)n3)c2c1` [Compound 7, N-(4-chloro-1,3,5-triazin-2-yl)-5-nitro-1,2-benzothiazol-3-amine], the remaining activity at 100 µM (at α-synuclein (α-syn); in assay [1]) was greater than 100% throughout.
Consider `O=C(Cc1ccccc1)Nc1nsc2ccc([N+](=O)[O-])cc12` [Compound 8, N-(5-nitro-1,2-benzothiazol-3-yl)-2-phenylacetamide], for which the results for the remaining activity at 100 µM (on α-synuclein (α-syn); in assay [1]) were greater than 100% and 95.2 ± 1.2%, respectively.
As to `O=C(Cc1cccs1)Nc1nsc2ccc([N+](=O)[O-])cc12` [Compound 9], the remaining activity at 100 µM on α-synuclein (α-syn) was greater than 100%; in assay [1] it was 69 ± 0.1%.
`CC(=O)Nc1nsc2ccc([N+](=O)[O-])cc12` [Compound 10, N-(5-nitro-1,2-benzothiazol-3-yl)acetamide]: at α-synuclein (α-syn), the “ThT a-Syn (%), maximum thioflavin T (ThT) intensity in percentage” value came out at 55.6 ± 3.2% and the remaining activity at 100 µM stood at 55.6 ± 3.2%. Moreover, on tau isoform 2N4R, the “production of tau isoform 2N4R fibrils (ThT kinetic aggregation curves)” value is given as “reduced the production of tau isoform 2N4R fibrils”. Moreover, in assay [1], the remaining activity at 100 µM stood at 90.2 ± 2.7%.
For `O=C(CCl)Nc1nsc2ccc([N+](=O)[O-])cc12` [Compound 11, 2-chloro-N-(5-nitro-1,2-benzothiazol-3-yl)acetamide], on α-synuclein (α-syn), the “ThT a-Syn (%), maximum thioflavin T (ThT) intensity in percentage” value is on record as 45.3 ± 12.9% and the remaining activity at 100 µM was determined as 45.3 ± 12.9%. For the same compound, the remaining activity at 100 µM in assay [1] worked out at 59.7 ± 2.6%.
With `CS(=O)(=O)N(c1nsc2ccc([N+](=O)[O-])cc12)S(C)(=O)=O` [Compound 12, N-methanesulfonyl-N-(5-nitro-1,2-benzothiazol-3-yl)methanesulfonamide], the remaining activity at 100 µM was greater than 100% on α-synuclein (α-syn) and 63 ± 17.4% in assay [1].
